Measurements as given in ChEMBL document CHEMBL3272155, “Synthesis of beta-spiro[pyrrolidinoindolines], their binding to the glycine receptor, and in vivo biological acitivity” (J Med Chem, 1977).

Columns and labels:
Mus musculus [1] = assay: Induction of tonic convulsions in ip dosed COBS-CDI mouse measured after 3 hrs; type: functional
[2] = target: T1, Glycine receptor subunit alpha-1 (Rattus norvegicus, UniProt P07727); assay: Displacement of [3H]Strychnine from glycine receptor in rat brain synaptic membranes; type: cell membranes
T1 sequence (P07727 whole entry): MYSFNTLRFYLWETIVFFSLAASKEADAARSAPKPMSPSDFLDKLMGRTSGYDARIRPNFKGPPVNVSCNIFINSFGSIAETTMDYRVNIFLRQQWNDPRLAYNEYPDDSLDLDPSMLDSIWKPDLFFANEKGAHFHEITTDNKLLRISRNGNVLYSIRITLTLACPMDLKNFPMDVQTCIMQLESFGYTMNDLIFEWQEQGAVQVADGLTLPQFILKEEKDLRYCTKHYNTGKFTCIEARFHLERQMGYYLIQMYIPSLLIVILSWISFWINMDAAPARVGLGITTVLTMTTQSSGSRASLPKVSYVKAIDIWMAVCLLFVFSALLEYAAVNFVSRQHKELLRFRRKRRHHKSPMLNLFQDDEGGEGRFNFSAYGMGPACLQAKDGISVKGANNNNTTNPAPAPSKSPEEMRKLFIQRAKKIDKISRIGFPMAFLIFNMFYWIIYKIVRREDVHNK

[3] = Toxicity in ip dosed COBS-CDI mouse assessed as mortality measured after 3 hrs; type: organism-based; details: in vivo
Mus musculus [4] = assay: Induction of clonic convulsions in ip dosed COBS-CDI mouse measured after 3 hrs; type: functional

Compound	ED50 (Mus musculus [1]) [µmol/kg]	IC50 [2] [µM]	LD50 at 3 h [3] [µmol/kg]	ED50 (Mus musculus [4]) [µmol/kg]
CC(=O)N1CC2(CCNC2)c2ccccc21.O=C(O)C(=O)O (configuration not stated)	746	295	687	542
CN1CCC2(CNc3ccccc32)C1 (configuration not stated)	412	282	412	365
CC(=O)N1CC2(CCCC2)c2ccccc21	> 7420	> 1000	6880	1650
C=CCN1CCC2(C1)CN(C(C)=O)c1ccccc12.O=C(O)C(=O)O (configuration not stated)	434	67.9	396	300
CC(=O)N1c2ccccc2C(C)(C)C1C (racemic)	> 3940	> 1000	2830	< 1970
CC(=O)N1CCc2ccccc21	> 2480	> 1000	1400	> 2480
CC(=O)N1CC2(CCN(Cc3ccccc3)C2)c2ccccc21.O=C(O)C(=O)O (configuration not stated)	> 1010	31	505	252
CC(=O)N1CC2(CCN(C)C2)c2ccccc21 (configuration not stated)	83.9	23.6	94.8	79.6
